{"source": "patent US11208671B2", "about": "“Recombinant cell and method of producing itaconic acid” (City University of Hong Kong, priority 2019, dated 2021)", "test_system": "Methylorubrum extorquens AM1", "assay": "Tolerance of the strain to the inhibitory effect of itaconic acid", "format": "cell-based", "details": "itaconic acid 10 mM"}
{"smiles": "C=C(CC(=O)O)C(=O)O", "note": "[itaconic acid]", "values": [{"measurement": "Tolerance to inhibitory effect of itaconic acid", "value": "highly tolerant"}]}
